Laboratory results taken from the supplement of paper PMC10307832.

Columns and labels:
Assay in all cases: relative viability (nuclei count vs DMSO), 5 days (fraction); higher = more cells survive
Vatalanib = compound: Clc1ccc(Nc2nnc(Cc3ccncc3)c3ccccc23)cc1 [Vatalanib]
In short: (§1)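 Acceptance criteria were a control CV below 25% and at least one doubling per plate. Lung cancer cell lines in 1536-well plates got five library-drug doses (not always all listed) √10 apart by pinning and were left 5 days with no medium change. Viability divides treated-well nuclei by vehicle-well nuclei and is the median across plates. Nuclei were counted by MetaXpress from 4× Hoechst images.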

HG-5-88-01 = compound: CC(C)S(=O)(=O)C1=CC=CC=C1NC2=NC(=NC(=C2Cl)N)NC3=C(C=C(C=C3)N4CCC(CC4)C(=O)N)OC [HG-5-88-01]
In short: as §1

Embelin = compound: CCCCCCCCCCCC1=C(O)C(=O)C=C(O)C1=O [Embelin]
In short: as §1

[1] = compound: C[C@@H]1CN(CC(=O)Nc2ccc3c(c2)Cc2cccc(-c4cc(=O)cc(N5CCOCC5)o4)c2S3)C[C@H](C)O1
In short: as §1

AZ23 = compound: CC(C)Oc1cc(Nc2nc(N[C@@H](C)c3ccc(F)cn3)ncc2Cl)n[nH]1 [AZ23]
In short: as §1

| Cell Line | relative viability (Vatalanib; 0.04 µM) | relative viability (Vatalanib; 0.1265 µM) | relative viability (Vatalanib; 0.4 µM) | relative viability (Vatalanib; 1.265 µM) | relative viability (Vatalanib; 4 µM) | relative viability (HG-5-88-01; 0.04 µM) | relative viability (HG-5-88-01; 0.1265 µM) | relative viability (HG-5-88-01; 0.4 µM) | relative viability (HG-5-88-01; 1.265 µM) | relative viability (HG-5-88-01; 4 µM) | relative viability (Embelin; 0.08 µM) | relative viability (Embelin; 0.8 µM) | relative viability (Embelin; 2.53 µM) | relative viability (Embelin; 8 µM) | relative viability ([1]; 0.04 µM) | relative viability ([1]; 0.1265 µM) | relative viability ([1]; 0.4 µM) | relative viability ([1]; 4 µM) | relative viability (AZ23; 0.01 µM) | relative viability (AZ23; 0.03162 µM) | relative viability (AZ23; 0.3162 µM) |
| --- | --- | --- | --- | --- | --- | --- | --- | --- | --- | --- | --- | --- | --- | --- | --- | --- | --- | --- | --- | --- | --- |
| NCI-H2405 | 1.01 | 0.919 | 0.732 | 0.919 | 0.946 | 1.03 | 1 | 0.925 | 0.802 | 0.901 | 1.09 | 1.09 | 0.993 | 0.921 | 1.09 | 1.05 | 0.972 | 0.983 | 0.982 | 1.09 | 0.911 |
| LU99A | 1.03 | 1.02 | 1.06 | 0.951 | 0.923 | 0.963 | 0.958 | 0.873 | 1.02 | 0.907 | 1.08 | 1.07 | 1.08 | 0.948 | 0.86 | 1.05 | 1.15 | 0.975 | 1.04 | 0.998 | 0.941 |
| NCI-H2126 | 0.983 | 1 | 1.03 | 0.945 | 0.925 | 0.905 | 0.989 | 0.923 | 0.904 | 0.88 | 1.03 | 0.991 | 1.03 | 0.934 | 1.01 | 0.979 | 1 | 0.909 | 1.05 | 1.02 | 0.991 |
| ChaGo-K-1 | 0.87 | 0.983 | 1.01 | 0.962 | 1.06 | 1.02 | 1.03 | 0.936 | 1.03 | 0.841 | 1.06 | 1.01 | 1.05 | 0.983 | 0.826 | 0.961 | 0.967 | 0.979 | 1.2 | 1.09 | 1.04 |
| NCI-H1648 | 0.958 | 0.938 | 0.893 | 0.889 | 0.939 | 0.809 | 0.728 | 0.878 | 0.368 | 0.451 | 0.963 | 1.21 | 0.92 | 0.954 | 0.871 | 0.796 | 1.06 | 0.757 | 0.794 | 1.05 | 0.788 |
| 201T | 0.975 | 0.975 | 1.05 | 0.929 | 0.953 | 1.01 | 0.941 | 0.951 | 1.03 | 1.03 | 0.985 | 1.02 | 1.11 | 0.966 | 0.996 | 0.944 | 0.992 | 0.961 | 1.05 | 1.06 | 1.07 |
| UMC-11 | 1 | 0.953 | 0.954 | 0.984 | 1.03 | 0.887 | 1.02 | 0.843 | 0.943 | 0.807 | 0.987 | 1.07 | 1.02 | 0.974 | 0.969 | 0.938 | 1.01 | 0.865 | 0.954 | 1.01 | 0.968 |
| A-427 | 1.03 | 0.97 | 0.983 | 0.863 | 0.989 | 0.94 | 1.02 | 1.02 | 1.11 | 0.534 | 1.06 | 1.03 | 1.04 | 0.943 | 0.956 | 0.945 | 1.06 | 0.938 | 0.921 | 1.07 | 1.15 |
| H3255 | 0.921 | 0.926 | 0.841 | 0.781 | 0.978 | 1.04 | 1.05 | 0.838 |  | 0.871 | 0.963 | 1.05 | 0.875 | 1.07 | 0.917 | 0.947 | 0.905 | 0.878 | 0.858 | 1.21 | 0.999 |
